# Experimental data published in US11384066B1, “Heterocyclic compounds useful as aurora a selective inhibitors” (Jacobio Pharmaceuticals Co., Ltd., priority 2020, dated 2022).
# Columns and labels:
# [1] = biological target: Aurora B (Homo sapiens (Human), UniProt Q96GD4); experiment: Aurora B kinase assay (mobility shift assay); assay type: biochemical; conditions: ratio of Aurora B IC50 to Aurora A IC50
# Protocol: (§1) Example A: Evaluation of Aurora a and Aurora B Inhibitory Effect—Kinase Assay
# (§2) The inhibitory activities of a test compound against Aurora A and Aurora B were measured according to the following method.
# (§3) The IC50 value of Aurora A and Aurora B kinase was performed by Sundia MediTech Co. Ltd. using Mobility shift assay.
# (§4) • (1) Prepare a 1× kinase buffer [50 mM 4-(2-hydroxyethyl)-1-piperazineethanesulfonic acid (HEPES), PH 7.5, 0.01% Brij-35, 10 mM MgCl2, 2 mM dithiothreitol (DTT)]. • (2) Prepare compound:
# (§5) The testing compound was dissolved with DMSO. The testing compound was diluted up to 100× final concentration in a 384-well plate. Transfer 250 nL of the compound dilution to a 384-well assay plate using Echo 550. 100% DMSO of 250 nL was added to the negative control well and the positive control well. • (3) Prepare a 2.5× enzyme solution using the above 1× kinase buffer. • (4) Add 10 μL of the 2.5× enzyme solution to the compound well and the positive control well of the 384-well assay plate. Add 10 μL of the 1× kinase buffer to the negative control well. • (5) The 384-well plate was centrifuged at 1000 rpm for 30 seconds and incubated at room temperature for 10 min. • (6) A mixture of ATP and Kinase substrate 21 with a final concentration of 25/15× was prepared by the 1× kinase buffer. • (7) Add 15 μL of the mixture of 25/15×ATP and kinase substrate solution 21 to start reaction. • (8) The 384-well plate was centrifuged at 1000 rpm for 30 seconds and incubated at room temperature. • (9) 30 μL of the stop and detection buffer was added to stop the kinase reaction and centrifuged at 1000 rpm for 30 seconds. • (10) Collect data on Caliper EZ ReaderII. Data Analysis:
# (§6) Conversion %_sample is conversion rate data of samples. Conversion %_min is mean value of negative control (conversion rate data without enzyme activation). Conversion %_max is mean positive control (conversion rate data without compound).
# (§7) The log of concentration is on the X axis, and the percentage inhibition is on the Y axis. Fit the Quantitative effect curves with log (inhibitor) vs. response—Variable slope in GraphPad Prism5 obtain IC50 values. Equation used is Y=Bottom+(Top−Bottom)/(1+10^((Log IC50−X)*HillSlope)).
# [2] = biological target: Aurora A (Homo sapiens (Human), UniProt O14965); experiment: Aurora A kinase assay (mobility shift assay); assay type: biochemical
# Protocol: as §1, §2, §3, §4, §5, §6, §7
# Sequence of Aurora B (Q96GD4 whole entry): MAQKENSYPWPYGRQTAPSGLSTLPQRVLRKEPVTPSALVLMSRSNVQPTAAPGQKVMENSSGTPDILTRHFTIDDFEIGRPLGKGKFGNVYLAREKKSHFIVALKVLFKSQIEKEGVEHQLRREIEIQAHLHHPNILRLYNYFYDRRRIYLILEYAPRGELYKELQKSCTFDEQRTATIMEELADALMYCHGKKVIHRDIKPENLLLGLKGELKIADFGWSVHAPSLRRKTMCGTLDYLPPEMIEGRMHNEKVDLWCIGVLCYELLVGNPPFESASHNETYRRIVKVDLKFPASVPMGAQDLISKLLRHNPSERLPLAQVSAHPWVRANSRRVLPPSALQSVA
# Sequence of Aurora A (O14965 whole entry): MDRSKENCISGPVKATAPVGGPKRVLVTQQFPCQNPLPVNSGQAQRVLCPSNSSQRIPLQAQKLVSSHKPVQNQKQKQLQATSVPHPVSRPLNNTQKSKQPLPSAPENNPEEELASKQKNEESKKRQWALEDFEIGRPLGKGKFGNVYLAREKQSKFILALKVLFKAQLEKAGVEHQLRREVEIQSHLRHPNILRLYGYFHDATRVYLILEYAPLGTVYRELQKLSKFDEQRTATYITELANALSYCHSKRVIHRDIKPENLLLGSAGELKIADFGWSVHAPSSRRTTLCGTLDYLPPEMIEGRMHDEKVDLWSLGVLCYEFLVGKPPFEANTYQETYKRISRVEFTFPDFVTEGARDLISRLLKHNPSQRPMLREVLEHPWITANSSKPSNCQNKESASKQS
Compound,IC50 Ratio Aur B/Aur A [1],IC50 [2]
"Cc1cc(Nc2cncc(C[C@@]3(C(=O)O)CCN(Cc4cccc(Cl)c4F)[C@H](C)C3)n2)n[nH]1 (stereo in doubt) [Example 45, (2R,4R)-1-(3-chloro-2-fluorobenzyl)-2-methyl-4-((6-((5-methyl-1H-pyrazol-3-yl)amino)pyrazin-2-yl)methyl)piperidine-4-carboxylic acid]",523,0.88 nM
"Cc1cc(Nc2ccc(F)c(CC3(C(=O)O)CCN(Cc4cccc(Cl)c4F)CC3)n2)n[nH]1 [Example 1, 1-(3-chloro-2-fluorobenzyl)-4-((3-fluoro-6-((5-methyl-1H-pyrazol-3-yl)amino)pyridin-2-yl)methyl)piperidine-4-carboxylic acid]",2288,1.3 nM
"Cc1cc(Nc2ccc(C)c(C[C@@]3(C(=O)O)CCN(Cc4cccc(Cl)c4F)[C@H](C)C3)n2)n[nH]1 [Example 10, (2R,4R)-1-(3-chloro-2-fluorobenzyl)-2-methyl-4-((3-methyl-6-((5-methyl-1H-pyrazol-3-yl)amino)pyridin-2-yl)methyl) piperidine-4-carboxylic acid]",979,1 nM
"Cc1cc(Nc2ccc(F)c(C[C@@]3(C(=O)O)CCN(Cc4c(F)cccc4F)[C@H](C)C3)n2)n[nH]1 [Example 12, (2R,4R)-1-(2,6-difluorobenzyl)-4-((3-fluoro-6-((5-methyl-1H-pyrazol-3-yl)amino)pyridin-2-yl)methyl)-2-methylpiperidine-4-carboxylic acid]",2560,2.4 nM
"Cc1cc(Nc2ccc(F)c(C[C@@]3(C(=O)O)CCN(Cc4cccc(C)c4F)[C@H](C)C3)n2)n[nH]1 [Example 16, (2R,4R)-1-(2-fluoro-3-methylbenzyl)-4-((3-fluoro-6-((5-methyl-1H-pyrazol-3-yl)amino)pyridin-2-yl)methyl)-2-methylpiperidine-4-carboxylic acid]",1812,1.7 nM
"Cc1cc(Nc2ccc(F)c(C[C@@]3(C(=O)O)CCN(Cc4cccc(C(F)(F)F)c4)[C@H](C)C3)n2)n[nH]1 [Example 21, (2R,4R)-4-((3-fluoro-6-((5-methyl-1H-pyrazol-3-yl)amino)pyridin-2-yl)methyl)-2-methyl-1-(3-(trifluoromethyl)benzyl) piperidine-4-carboxylic acid]",1789,3.1 nM

# Further lines, results first:
IC50 Ratio Aur B/Aur A [1],IC50 [2],Compound
1236,2.9 nM,"CCC1CC(Cc2nc(Nc3cc(C)[nH]n3)ccc2F)(C(=O)O)CCN1Cc1cccc(Cl)c1F (centres unmarked) [Example 2, 1-(3-chloro-2-fluorobenzyl)-2-ethyl-4-((3-fluoro-6-((5-methyl-1H-pyrazol-3-yl)amino)pyridin-2-yl)methyl)piperidine-4-carboxylic acid]"
2264,0.64 nM,"Cc1cc(Nc2ccc(Cl)c(C[C@@]3(C(=O)O)CCN(Cc4cccc(Cl)c4F)[C@H](C)C3)n2)n[nH]1 [Example 11, (2R,4R)-1-(3-chloro-2-fluorobenzyl)-4-((3-chloro-6-((5-methyl-1H-pyrazol-3-yl)amino)pyridin-2-yl)methyl)-2-methylpiperidine-4-carboxylic acid]"
1755,0.55 nM,"Cc1cc(Nc2ccc(F)c(C[C@@]3(C(=O)O)CCN(Cc4cccc(F)c4F)[C@H](C)C3)n2)n[nH]1 [Example 15, (2R,4R)-1-(2,3-difluorobenzyl)-4-((3-fluoro-6-((5-methyl-1H-pyrazol-3-yl)amino)pyridin-2-yl)methyl)-2-methylpiperidine-4-carboxylic acid]"
2974,3.2 nM,"Cc1cc(Nc2ccc(F)c(C[C@@]3(C(=O)O)CCN(Cc4c(Cl)cccc4Cl)[C@H](C)C3)n2)n[nH]1 [Example 17, (2R,4R)-1-(2,6-dichlorobenzyl)-4-((3-fluoro-6-((5-methyl-1H-pyrazol-3-yl)amino)pyridin-2-yl)methyl)-2-methylpiperidine-4-carboxylic acid]"
